The values below come from DBAASP.

Values after ≈ are worked out from the molar mass of the structure shown. Values joined by “and” are separate entries in the source; they are usually repeats but may differ in a detail not shown here. Identical values can stand only once.

What all share (test): ≥ marks a high value that may be exact or a test limit, other limits are often not marked, values filed in µg/mL are converted to µM
Assay [1] relates to Enterococcus faecalis ATCC 29212.
In assay [2] the test system is Escherichia coli ATCC 25922.
Assay [3] has as its system Staphylococcus aureus ATCC 25923.
The subject of assay [4] is Pseudomonas aeruginosa ATCC 27853.
The test system of assay [5] is Pseudomonas aeruginosa.
Assay [6] relates to Escherichia coli.
For assay [7], the system named is Staphylococcus aureus.
For assay [8], the system named is Staphylococcus epidermidis ATCC 12228.
The subject of assay [9] is Staphylococcus aureus ATCC 29213.
Assay [10] has as its system Candida albicans ATCC 90028.
Assay [11] relates to Salmonella typhimurium KCTC 1926.
Assay [12] concerns Escherichia coli UB1005.
The subject of assay [13] is Pseudomonas aeruginosa PAO1.
The subject of assay [14] is Candida albicans ATCC 10231.

Usually MIC stands for the lowest concentration that inhibits growth of the organism. A lower MIC goes with greater potency.

As for `CSCC[C@H](NC(=O)[C@H](CCCN=C(N)N)NC(=O)[C@H](Cc1c[nH]c2ccccc12)NC(=O)[C@H](CCC(N)=O)NC(=O)[C@H](Cc1c[nH]c2ccccc12)NC(=O)[C@H](CCCN=C(N)N)NC(=O)[C@H](CCCN=C(N)N)NC(=O)[C@H](C)NC(=O)[C@H](CCCCN)NC(=O)[C@@H](N)Cc1ccccc1)C(=O)N[C@@H](CCCCN)C(=O)N[C@@H](CCCCN)C(=O)O` [FKARRWQWRMKK], the MIC in assay [1] was determined as 58.2 µM (≈ 100 µg/mL); in assay [2] it was 116 µM (≈ 200 µg/mL).
Turning to `CC[C@H](C)[C@H](NC(=O)CN)C(=O)NCC(=O)N[C@@H](C)C(=O)N[C@H](C(=O)N[C@@H](CC(C)C)C(=O)N[C@@H](CCCCN)C(=O)N[C@H](C(=O)N[C@@H](CC(C)C)C(=O)N[C@H](C(=O)N[C@H](C(=O)NCC(=O)N[C@@H](CC(C)C)C(=O)N1CCC[C@H]1C(=O)N[C@@H](C)C(=O)N[C@@H](CC(C)C)C(=O)N[C@H](C(=O)N[C@@H](CCCCN)C(=O)N[C@@H](CCCN=C(N)N)C(=O)N[C@@H](CCCCN)C(=O)N[C@@H](CCCN=C(N)N)C(=O)N[C@@H](CCC(N)=O)C(=O)N[C@@H](CCC(N)=O)C(=O)O)[C@@H](C)CC)[C@@H](C)O)[C@@H](C)O)C(C)C)C(C)C` [GIGAVLKVLTTGLPALIKRKRQQ], the MIC stood at 0.0508 µM (≈ 0.125 µg/mL) in assay [3]; 2.03 µM (≈ 5 µg/mL) in [4]; 1.44 µM (≈ 3.54 µg/mL) in assay [5]; 1.02 µM (≈ 2.5 µg/mL) in assay [2]; 0.359 µM (≈ 0.884 µg/mL) in assay [6].
Consider `CC[C@H](C)[C@H](NC(=O)CN)C(=O)NCC(=O)N[C@@H](CCCCN)C(=O)N[C@@H](Cc1ccccc1)C(=O)N[C@H](C(=O)N[C@@H](Cc1cnc[nH]1)C(=O)N[C@@H](CO)C(=O)N[C@H](C(=O)N[C@@H](CCCCN)C(=O)N[C@@H](CCCCN)C(=O)N[C@@H](Cc1c[nH]c2ccccc12)C(=O)NCC(=O)N[C@@H](CCCCN)C(=O)N[C@H](C(=O)N[C@@H](Cc1ccccc1)C(=O)N[C@H](C(=O)NCC(=O)N[C@@H](CCC(=O)O)C(=O)N[C@H](C(=O)N[C@@H](CCSC)C(=O)N[C@@H](CC(N)=O)C(=O)N[C@@H](CO)C(N)=O)[C@@H](C)CC)[C@@H](C)CC)[C@@H](C)O)C(C)C)[C@@H](C)CC` [GIGKFIHSVKKWGKTFIGEIMNS], for which the results for the MIC in assay [7], in assay [5] and in [6] were 18 µM (≈ 46.4 µg/mL), 18 µM (≈ 46.4 µg/mL) and 2.3 µM (≈ 5.93 µg/mL), respectively.
As for `CC[C@H](C)[C@H](N)C(=O)N[C@@H](Cc1c[nH]c2ccccc12)C(=O)N[C@@H](CCCN=C(N)N)C(=O)N[C@H](C(=O)N[C@@H](Cc1ccccc1)C(=O)N[C@@H](CCCN=C(N)N)C(=O)N[C@@H](CCCN=C(N)N)C(=O)N[C@H](C(=O)N[C@@H](Cc1ccccc1)C(=O)N[C@@H](CCCN=C(N)N)C(=O)N[C@H](C(=O)N[C@@H](Cc1ccccc1)C(N)=O)[C@@H](C)CC)[C@@H](C)CC)[C@@H](C)CC` [IWRIFRRIFRIF], the MIC is 4 µM (≈ 6.89 µg/mL) in assay [4]; 4 µM and 8 µM in assay [2]; 2 µM (≈ 3.44 µg/mL) in assay [8]; 1 µM (≈ 1.72 µg/mL) in assay [9].
As to `CC[C@H](C)[C@H](N)C(=O)N[C@@H](Cc1c[nH]c2ccccc12)C(=O)N[C@@H](CCCN=C(N)N)C(=O)N[C@H](C(=O)N[C@@H](Cc1ccccc1)C(=O)N[C@@H](CCCN=C(N)N)C(N)=O)[C@@H](C)CC` [IWRIFR], the MIC in assay [4] was 128 µM (≈ 114 µg/mL); in assay [2], 128 µM (≈ 114 µg/mL); in [8], 64 µM (≈ 56.9 µg/mL); in [9], 128 µM (≈ 114 µg/mL).
In the case of `CC(C)C[C@H](NC(=O)[C@H](C)NC(=O)[C@H](CC(C)C)NC(=O)[C@@H](N)CCCCN)C(=O)N[C@@H](CCCCN)C(=O)N[C@@H](C)C(=O)N[C@@H](C)C(=O)N[C@@H](C)C(=O)N[C@@H](CCCCN)C(=O)N[C@@H](C)C(=O)N[C@@H](Cc1c[nH]c2ccccc12)C(=O)N[C@@H](CCCCN)C(=O)N[C@@H](C)C(=O)N[C@@H](C)C(=O)N[C@@H](C)C(=O)N[C@@H](CCCCN)C(=O)N[C@@H](C)C(=O)N[C@@H](C)C(N)=O` [KLALKAAAKAWKAAAKAA], the minimum inhibitory concentration (MIC) in assay [7] is greater than 91 µM; in [5], greater than 91 µM; in [6], 91 µM (≈ 162 µg/mL).
Turning to `CC[C@H](C)[C@H](NC(=O)[C@H](CCCN=C(N)N)NC(=O)[C@H](CCC(N)=O)NC(=O)[C@H](C)NC(=O)[C@H](C)NC(=O)[C@H](CCCN=C(N)N)NC(=O)[C@@H](N)CCCCN)C(=O)N[C@@H](CCCCN)C(=O)N[C@@H](C)C(=O)N[C@@H](Cc1ccccc1)C(=O)N[C@@H](CC(C)C)C(=O)N[C@@H](CCCN=C(N)N)C(=O)O` [KRAAQRIKAFLR], the MIC in [10] was no less than 40 µM; in [4] it was 5 µM (≈ 7.29 µg/mL); in assay [2], 2.5 µM (≈ 3.64 µg/mL); in assay [9] it was 10 µM (≈ 14.6 µg/mL).
Take `CC[C@H](C)[C@H](NC(=O)[C@H](CCCN=C(N)N)NC(=O)[C@H](CCC(N)=O)NC(=O)[C@@H](NC(=O)[C@@H](NC(=O)[C@H](CCCN=C(N)N)NC(=O)[C@@H](N)CCCCN)[C@@H](C)CC)C(C)C)C(=O)N[C@@H](CCCCN)C(=O)N[C@@H](CC(=O)O)C(=O)N[C@@H](Cc1ccccc1)C(=O)N[C@@H](CC(C)C)C(=O)N[C@@H](CCCCN)C(=O)O` [KRIVQRIKDFLK]: the MIC in assay [10] came to 10 µM (≈ 15.4 µg/mL); in [4] it was 5 µM (≈ 7.72 µg/mL); in assay [2], 5 µM (≈ 7.72 µg/mL); in assay [9], 10 µM (≈ 15.4 µg/mL).
Take `CC[C@H](C)[C@H](NC(=O)[C@@H](NC(=O)[C@@H](NC(=O)[C@H](CCCN=C(N)N)NC(=O)[C@@H](NC(=O)[C@@H](NC(=O)[C@H](CC(C)C)NC(=O)[C@@H]1CCCN1C(=O)[C@H](Cc1c[nH]c2ccccc12)NC(=O)[C@@H](NC(=O)[C@H](CCCN=C(N)N)NC(=O)[C@H](CCCCN)NC(=O)[C@@H](NC(=O)[C@@H](N)CCCN=C(N)N)C(C)C)C(C)C)C(C)C)[C@@H](C)CC)[C@@H](C)O)C(C)C)C(=O)N[C@@H](C)C(=O)NCC(=O)N[C@@H](Cc1ccc(O)cc1)C(=O)N[C@@H](CC(N)=O)C(=O)N[C@@H](CC(C)C)C(=O)O` [RVKRVWPLVIRTVIAGYNL]: the MIC in assay [11] is no less than 32 µM.
As to `CC[C@H](C)[C@H](NC(=O)[C@H](CCCN=C(N)N)NC(=O)[C@H](CCCN=C(N)N)NC(=O)[C@@H]1CCCN1C(=O)[C@@H]1CCCN1C(=O)[C@H](CCCN=C(N)N)NC(=O)[C@@H]1CCCN1C(=O)[C@H](CCCN=C(N)N)NC(=O)[C@@H]1CCCN1C(=O)[C@H](CC(C)C)NC(=O)[C@H](Cc1ccc(O)cc1)NC(=O)[C@@H]1CCCN1C(=O)[C@@H]1CCCN1C(=O)[C@H](CCCCN)NC(=O)[C@@H]1CCCN1C(=O)[C@@H](N)C(C)C)C(=O)N[C@@H](Cc1ccc(O)cc1)C(=O)N[C@@H](CC(N)=O)C(=O)N[C@@H](CCCN=C(N)N)C(N)=O` [VPKPPYLPRPRPPRRIYNR], the values for the minimum inhibitory concentration (MIC) in assay [12], in assay [3] and in assay [13] were 2.11 µM (≈ 5 µg/mL), 3.37 µM (≈ 8 µg/mL) and 19.1 µM (≈ 45.2 µg/mL), respectively.
On the same counts, the results for `CC[C@H](C)[C@H](NC(=O)[C@H](CCCN=C(N)N)NC(=O)[C@H](CCCN=C(N)N)NC(=O)[C@@H]1CCCN1C(=O)[C@H](Cc1c[nH]c2ccccc12)NC(=O)[C@H](CCCN=C(N)N)NC(=O)[C@@H]1CCCN1C(=O)[C@H](CCCN=C(N)N)NC(=O)[C@@H]1CCCN1C(=O)[C@H](CC(C)C)NC(=O)[C@H](Cc1ccc(O)cc1)NC(=O)[C@@H]1CCCN1C(=O)[C@@H]1CCCN1C(=O)[C@H](CCCCN)NC(=O)[C@H](CCCN=C(N)N)NC(=O)[C@@H](N)C(C)C)C(=O)N[C@@H](Cc1ccc(O)cc1)C(=O)N[C@@H](CC(N)=O)C(=O)N[C@@H](CCCN=C(N)N)C(N)=O` [VRKPPYLPRPRWPRRIYNR] are 0.516 µM (≈ 1.3 µg/mL), 0.198 µM (≈ 0.5 µg/mL) and 2.24 µM (≈ 5.65 µg/mL).
Turning to `CC(C)C[C@H](NC(=O)[C@H](CCCCN)NC(=O)[C@H](CCCCN)NC(=O)[C@H](CC(C)C)NC(=O)[C@H](CC(C)C)NC(=O)[C@H](CCCCN)NC(=O)[C@H](CCCCN)NC(=O)[C@H](CC(C)C)NC(=O)[C@H](CCCCN)NC(=O)[C@H](CCCCN)NC(=O)[C@H](CC(C)C)NC(=O)[C@H](CC(C)C)NC(=O)[C@H](CCCCN)NC(=O)[C@H](CCCCN)NC(=O)[C@H](CC(C)C)NC(=O)[C@H](CC(C)C)NC(=O)[C@H](CCCCN)NC(=O)[C@@H](N)Cc1ccc(O)cc1)C(N)=O` [YKLLKKLLKKLKKLLKKL], the minimum inhibitory concentration (MIC) in [4] turned out to be 6.31 µM (≈ 14.1 µg/mL); in [14], 27.9 µM (≈ 62.4 µg/mL); in assay [9], 18.1 µM (≈ 40.6 µg/mL).
In turn, `CC[C@H](C)[C@H](NC(=O)CNC(=O)[C@H](CC(C)C)NC(=O)[C@@H](NC(=O)[C@@H](N)Cc1ccc(O)cc1)[C@@H](C)O)C(=O)N[C@@H](CCCCN)C(=O)N[C@H](C(=O)N[C@@H](CC(C)C)C(=O)N[C@@H](Cc1c[nH]c2ccccc12)C(=O)N[C@@H](CO)C(=O)N[C@@H](C)C(=O)N[C@@H](Cc1ccc(O)cc1)C(=O)N[C@@H](CCCCN)C(=O)N[C@@H](Cc1cnc[nH]1)C(=O)N[C@@H](CCCN=C(N)N)C(=O)N[C@@H](CCCCN)C(=O)N[C@H](C(=O)N[C@H](C(=O)N[C@@H](CCC(=O)O)C(=O)N[C@@H](CCCCN)C(=O)N[C@@H](CO)C(=O)N[C@@H](Cc1ccccc1)C(=O)N[C@@H](CC(N)=O)C(=O)N[C@@H](CCCCN)C(=O)NCC(=O)N[C@@H](Cc1ccccc1)C(=O)N[C@@H](Cc1ccc(O)cc1)C(=O)N[C@@H](Cc1cnc[nH]1)C(=O)O)[C@@H](C)CC)[C@@H](C)O)[C@@H](C)CC` [YTLGIKILWSAYKHRKTIEKSFNKGFYH] displayed an MIC in assay [8] of 50 µM (≈ 172 µg/mL).
